In patent US10344019B2 (priority 2010, dated 2019):
Where two headings read alike, the source gives them in different places.

What was measured:
Assay type in all cases: cell-based
[1] = system: HCV 1a RLuc cells (dicistronic genotype 1a H77 replicon, RLuc reporter); experiment: microbe, parasite or virus in culture; conditions: Hepatitis C virus, read-out: 1a
Procedure, shortened: (§1)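 Replicon cells stably carrying the listed RLuc-encoding dicistronic replicons were seeded and treated with DMSO serial dilutions of compound (10 mM stocks) diluted into culture medium. After 72 h, cells were lysed and Renilla luciferase activity measured. EC50 was derived by non-linear regression.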

[2] = system: HCV 1b RLuc cells (dicistronic genotype 1b Con1 replicon, RLuc reporter); experiment: microbe, parasite or virus in culture; conditions: Hepatitis C virus, read-out: 1b (nM)
Procedure, shortened: as §1

[3] = system: HCV 2a JFH-1 Rluc cells (dicistronic genotype 2a JFH-1 replicon, RLuc reporter); experiment: microbe, parasite or virus in culture; conditions: Hepatitis C virus, read-out: 2a JFH
Procedure, shortened: as §1

[4] = system: HCV 2b Rluc cells (NS5A chimeric genotype 2a JFH-1 replicon with genotype 2b MD2b-1 NS5A gene, M31 present); experiment: microbe, parasite or virus in culture; conditions: Hepatitis C virus, read-out: 2b
Procedure, shortened: as §1

[5] = system: HCV 3a RLuc cells (NS5A chimeric genotype 1b Con1 replicon with consensus genotype 3a NS5A gene); experiment: microbe, parasite or virus in culture; conditions: Hepatitis C virus
Procedure, shortened: as §1

[6] = system: HCV 4a Rluc cells (NS5A chimeric genotype 1b Con1 replicon with genotype 4a NS5A gene); experiment: microbe, parasite or virus in culture; conditions: Hepatitis C virus, read-out: 4a
Procedure, shortened: as §1

[7] = system: HCV 2a Rluc cells (NS5A chimeric genotype 2a JFH-1 replicon with genotype 2a J6 strain NS5A gene, M31 present); experiment: HCV replicon reporter assay, genotype 2a J6 (M31 present); conditions: Hepatitis C virus, read-out: 2a J6
Procedure, shortened: as §1

[8] = read-out: 3a, genotype 3a replicon
[9] = genotype 2a JFH-1 RLuc replicon
[10] = read-out: 3a, genotype 3a NS5A chimeric replicon
[11] = genotype 1a H77 replicon, RLuc reporter
[12] = genotype 2a JFH-1 replicon, RLuc reporter
[13] = read-out: 3a, genotype 3a NS5A chimeric 1b Con1 replicon
[14] = 72 h, Table 1, genotype 1a H77 replicon, 72 hours
[15] = 72 h, Table 1, genotype 2a JFH-1 replicon, 72 hours
[16] = read-out: 3a, Table 1, genotype 3a NS5A chimeric replicon

SMILES	EC50 ([1]; genotype 1a replicon) [pM]	EC50 [2] [nM]	EC50 ([3]; genotype 2a JFH-1 replicon) [pM]	EC50 [4] [pM]	EC50 [5, 8] [pM]	EC50 [6] [pM]	EC50 [7] [pM]	EC50 ([1]; genotype 1a H77 RLuc replicon) [pM]	EC50 [3, 9] [pM]	EC50 [5, 10] [pM]	EC50 [1, 11] [pM]	EC50 [3, 12] [pM]	EC50 [5, 13] [pM]	EC50 [1, 14] [pM]	EC50 ([2]; 72 h) [nM]	EC50 [3, 15] [pM]	EC50 [5, 16] [pM]
COC[C@H]1C[C@@H](c2nc3ccc4cc(-c5ccc(-c6cnc([C@@H]7CCCN7C(=O)[C@H](NC(=O)CN(C)C)c7ccccc7)[nH]6)cc5)ccc4c3[nH]2)N(C(=O)[C@@H](NC(=O)OC)C(C)C)C1 [Example 476]	1 to 999	0.099	1 to 999	1 to 999	1 to 990	1 to 990	1 to 999	–	–	–	–	–	–	–	–	–	–
COC[C@H]1C[C@@H](c2ncc(-c3ccc(-c4ccc5c(ccc6nc([C@@H]7CCCN7C(=O)[C@@H](NC(=O)OC)C(C)C)[nH]c65)c4)cc3)[nH]2)N(C(=O)[C@H](NC(=O)C2CC2)c2ccccc2)C1 [Example 456]	1 to 999	0.04	1 to 999	1 to 999	1 to 990	1 to 990	1 to 999	–	–	–	–	–	–	–	–	–	–
COC[C@H]1C[C@@H](c2ncc(-c3cc4c5c(c3)OCc3cc(-c6cnc([C@@H]7CC[C@H](C)N7C(=O)[C@@H](NC(=O)OC)C(C)C)[nH]6)cc(c3-5)OC4)[nH]2)N(C(=O)[C@@H](NC(=O)OC)C(C)C)C1 [Example 595]	–	0.02	–	1000 to 44000	–	1 to 990	> 44000	1 to 999	1 to 999	1 to 990	–	–	–	–	–	–	–
O=C(N[C@@H](C(=O)N1CCC[C@H]1c1ncc(-c2cc3c4c(c2)OCc2cc(-c5cnc([C@@H]6CCCN6C(=O)[C@H](NC(=O)c6ccncn6)c6ccccc6)[nH]5)cc(c2-4)OC3)[nH]1)c1ccccc1)c1ccncn1 [Example 491]	–	0.066	–	1 to 999	–	1 to 990	1 to 999	1 to 999	1 to 999	1 to 990	–	–	–	–	–	–	–
CC(C)(C)C(=O)N[C@@H](C(=O)N1CCC[C@H]1c1ncc(-c2cc3c4c(c2)OCc2cc(-c5cnc([C@@H]6CCCN6C(=O)[C@H](NC(=O)C(C)(C)C)c6ccccc6)[nH]5)cc(c2-4)OC3)[nH]1)c1ccccc1 [Example 466]	1 to 999	0.042	1 to 999	1000 to 44000	1 to 990	1 to 990	1000 to 44000	–	–	–	–	–	–	–	–	–	–
COC(=O)N[C@H](C(=O)N1CCC[C@H]1c1ncc(-c2ccc3cc(-c4ccc5c(ccc6nc([C@@H]7CCCN7C(=O)[C@H](NC(=O)OC)c7ccccc7)[nH]c65)c4)ccc3c2)[nH]1)C(C)C [Example 169]	–	0.006	–	> 44000	–	1 to 990	> 44000	–	–	–	1 to 999	1 to 999	1 to 990	–	–	–	–
COC[C@H]1CC[C@@H](c2ncc(-c3cc4c5c(c3)OCc3cc(-c6cnc([C@@H]7CC[C@H](COC)N7C(=O)[C@@H](NC(=O)OC)C(C)C)[nH]6)cc(c3-5)OC4)[nH]2)N1C(=O)[C@@H](NC(=O)OC)C(C)C [Example 578]	–	0.022	–	> 44000	–	1 to 990	> 44000	1 to 999	1 to 999	1 to 990	–	–	–	–	–	–	–
COC(=O)N[C@H](C(=O)N1[C@@H]2CC[C@@H](C2)[C@H]1c1nc2ccc3cc(-c4ccc5c(ccc6nc([C@@H]7CCCN7C(=O)[C@@H](NC(=O)OC)C7CCOCC7)[nH]c65)c4)ccc3c2[nH]1)C(C)C [Example 298]	1 to 999	0.077	1 to 999	1000 to 44000	1 to 990	1 to 990	1 to 999	–	–	–	–	–	–	–	–	–	–
COC(=O)N[C@H](C(=O)N1CCC[C@H]1c1ncc(-c2ccc3c(c2)COc2c-3ccc3c2ccc2nc([C@@H]4CCCN4C(=O)[C@H](NC(=O)OC)c4ccccc4)[nH]c23)[nH]1)C(C)C [Example 413]	1 to 999	0.017	1 to 999	1000 to 44000	1 to 990	1 to 990	1000 to 44000	–	–	–	–	–	–	–	–	–	–
COC(=O)N[C@H](C(=O)N1CCC[C@H]1c1ncc(-c2ccc3cc(-c4ccc5c(c4)CCc4nc([C@@H]6CCCN6C(=O)[C@@H](NC(=O)OC)C(C)C)[nH]c4-5)ccc3c2)[nH]1)C(C)C [Example 114]	–	0.011	–	> 44000	–	1 to 990	> 44000	–	–	–	1 to 999	1000 to 44000	1000 to 4990	–	–	–	–
COC[C@H]1C[C@@H](c2nc3ccc4cc(-c5ccc6c(ccc7nc([C@@H]8C[C@H]9C[C@H]9N8C(=O)[C@@H](NC(=O)OC)C(C)C)[nH]c76)c5)ccc4c3[nH]2)N(C(=O)[C@H](NC(=O)OC(C)(C)C)c2ccccc2)C1 [Example 497]	–	0.008	–	1 to 999	–	1 to 990	1 to 999	1 to 999	1 to 999	1 to 990	–	–	–	–	–	–	–
COC(=O)N[C@@H](C(=O)N1[C@@H]2C[C@@H]2C[C@H]1c1ncc(-c2cc3c4c(c2)OCc2cc(-c5cnc([C@@H]6C[C@H]7C[C@H]7N6C(=O)[C@H](NC(=O)OC)c6ccccc6)[nH]5)cc(c2-4)OC3)[nH]1)c1ccccc1 [Example 496]	–	0.011	–	1 to 999	–	1 to 990	1 to 999	1 to 999	1 to 999	1 to 990	–	–	–	–	–	–	–
CCC(=O)N[C@@H](C(=O)N1CCC[C@H]1c1ncc(-c2ccc(-c3ccc4c(ccc5nc([C@@H]6C[C@H](COC)CN6C(=O)[C@@H](NC(=O)OC)C(C)C)[nH]c54)c3)cc2)[nH]1)c1ccccc1 [Example 479]	1 to 999	0.034	1 to 999	1 to 999	1 to 990	1 to 990	1 to 999	–	–	–	–	–	–	–	–	–	–
COC(=O)N[C@H](C(=O)N1CCC[C@H]1c1nc2ccc3c4c(ccc3c2[nH]1)-c1ccc(-c2cnc([C@@H]3CCCN3C(=O)[C@H](NC(=O)OC)c3ccccc3)[nH]2)cc1CO4)C(C)C [Example 412]	1 to 999	0.018	1 to 999	1 to 999	1 to 990	1 to 990	1000 to 44000	–	–	–	–	–	–	–	–	–	–
COC(=O)N[C@H](C(=O)N1CCC[C@H]1c1ncc(-c2ccc3c4c(ccc3c2)-c2ccc(-c3cnc([C@@H]5CCCN5C(=O)[C@H](NC(=O)OC)c5ccccc5)[nH]3)cc2CO4)[nH]1)C(C)C [Example 1]	–	–	–	> 44000	–	1 to 990	> 44000	–	–	–	–	–	–	1 to 999	0.008	1 to 999	1 to 990
COC(=O)N[C@H](C(=O)N1CCC[C@H]1c1ncc(-c2ccc3c4c(ccc3c2)-c2ccc(-c3cnc([C@@H]5CCCN5C(=O)[C@H](NC(=O)OC)c5ccccc5)[nH]3)cc2CO4)[nH]1)[C@@H](C)OC [Example 16]	–	–	–	1000 to 44000	–	1 to 990	1000 to 44000	–	–	–	–	–	–	1 to 999	0.011	1 to 999	1 to 990
COC(=O)N[C@H](C(=O)N1CCC[C@H]1c1nc2ccc3cc(-c4ccc5c(ccc6nc([C@@H]7C[C@H](COC(F)F)CN7C(=O)[C@@H](NC(=O)OC)C(C)C)[nH]c65)c4)ccc3c2[nH]1)C(C)C [Example 514]	–	0.01	–	1 to 999	–	1 to 990	1 to 999	1 to 999	1 to 999	1 to 990	–	–	–	–	–	–	–
COC(=O)N[C@H](C(=O)N1CCC[C@H]1c1ncc(-c2cc3c4c(c2)OCc2cc(-c5cnc([C@@H]6CCCN6C(=O)[C@@H](NC(=O)OC)C(C)C)[nH]5)cc(c2-4)OC3)[nH]1)C(C)C [Example 9]	–	–	–	1000 to 44000	–	1 to 990	> 44000	–	–	–	–	–	–	1 to 999	0.022	1 to 999	1 to 990
COC(=O)N[C@H](C(=O)N1CCC[C@H]1c1ncc(-c2ccc3c4c(ccc3c2)-c2ccc(-c3cnc([C@@H]5CCCN5C(=O)[C@@H](NC(=O)OC)C5CCOCC5)[nH]3)cc2CO4)[nH]1)C(C)C [Example 8]	–	–	–	> 44000	–	1 to 990	> 44000	–	–	–	–	–	–	1 to 999	0.006	1 to 999	1000 to 4990
COC[C@H]1C[C@@H](c2nc3ccc4cc(-c5ccc6c(ccc7nc([C@@H]8CCCN8C(=O)[C@@H](NC(=O)OC)C(C)C)[nH]c76)c5)ccc4c3[nH]2)N(C(=O)[C@H](NC(=O)C2CC2)c2ccccc2)C1 [Example 508]	–	0.026	–	1 to 999	–	1 to 990	1 to 999	1 to 999	1 to 999	1 to 990	–	–	–	–	–	–	–
